Source: patent US20250195469A1, “COMPANION DIAGNOSTICS AND STRATEGIES FOR TREATMENT WITH AN ARYL HYDROCARBON RECEPTOR AGONIST COMPOUND” (AZORA THERAPEUTICS, INC., priority 2022, published 2025)
Where two headings read alike, the source gives them in different places. Each block holds one compound with its values, some of them ahead of it.

How the values were obtained:
AhR = molecular target: T1, AhR (Homo sapiens, UniProt P35869); experiment: Inhaled AhR antagonist combined with indirubin therapy; format: in vivo; conditions: two weeks, with nanoparticulate indirubin
T1 construct: takes a biopsy of the treated skin from this treated spot; from tissue; host or cells: human skin biopsy, epidermal cells
T1 sequence (P35869 11-848): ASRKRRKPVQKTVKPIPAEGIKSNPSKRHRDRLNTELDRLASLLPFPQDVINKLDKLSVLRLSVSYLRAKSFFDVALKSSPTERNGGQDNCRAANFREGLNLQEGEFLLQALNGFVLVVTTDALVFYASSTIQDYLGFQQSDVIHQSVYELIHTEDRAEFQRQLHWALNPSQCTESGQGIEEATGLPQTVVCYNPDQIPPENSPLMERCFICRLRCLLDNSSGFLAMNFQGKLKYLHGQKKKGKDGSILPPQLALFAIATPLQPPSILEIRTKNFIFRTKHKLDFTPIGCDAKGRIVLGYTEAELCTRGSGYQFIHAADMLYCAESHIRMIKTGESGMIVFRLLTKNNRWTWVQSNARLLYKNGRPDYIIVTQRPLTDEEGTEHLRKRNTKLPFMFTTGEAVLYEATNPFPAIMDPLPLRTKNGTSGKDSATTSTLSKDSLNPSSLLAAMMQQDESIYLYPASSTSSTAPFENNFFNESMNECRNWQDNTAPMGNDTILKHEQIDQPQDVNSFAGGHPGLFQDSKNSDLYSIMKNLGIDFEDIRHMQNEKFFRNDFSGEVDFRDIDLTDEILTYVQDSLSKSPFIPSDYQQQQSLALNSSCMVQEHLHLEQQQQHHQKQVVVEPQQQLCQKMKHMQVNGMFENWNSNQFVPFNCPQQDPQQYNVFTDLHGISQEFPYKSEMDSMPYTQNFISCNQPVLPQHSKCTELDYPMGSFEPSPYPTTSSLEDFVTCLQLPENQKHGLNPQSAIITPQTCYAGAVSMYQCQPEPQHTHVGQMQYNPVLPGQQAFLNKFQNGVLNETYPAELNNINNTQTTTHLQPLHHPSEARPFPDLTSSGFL
Description: During the course of therapy with a nanoparticulate form of synthetic indirubin for the treatment of gastritis, a patient complains of ad adverse event, in this case shortness of breath and difficulty doing physical exercise. The patient is responding well to therapy but the doctor is concerned about possible development of additional PAH-like symptoms. The doctor maintains the indirubin therapy but prescribes the patient an inhalable AhR antagonist, in this case inhaled 1-Methyl-N-[2-methyl-4-[2-(2-methylphenyl)diazenyl]phenyl-1H-pyrazole-5-carboxamide (CH223191) that is designed to reduce AhR signaling in the lung epithelium.

[1] = Description: A patient with pouchitis is being treated with an oral suspension containing 10 mg indirubin twice daily. Plasma samples are taken weekly during the first 6 weeks of therapy and sent out for PK analysis for indirubin levels. […] The physician reduces the dose to 2.5 mg once per day.
CYP1A2 = system: CYP1A2
Description: (§1) A patient with Crohn's disease is given 50 mg of indirubin in an immediate release tablet once daily. A diagnostic is set to evaluate the mRNA levels of both CYP1A1 and CYP1A2 in the blood using RT-PCR of peripheral blood mononuclear cell mRNA every two weeks.

CYP1A1 = system: CYP1A1
Description: as §1

[2] = system: multiple sclerosis patients; conditions: Phase 3; cited from earlier work
[3] = Echocardiogram monitoring during linomide therapy (REMS); format: in vivo, human; conditions: oral tablet, after 6 months
Description: Based on the label of an orally administered tablet containing linomide, a patient must enroll in a risk evaluation and mitigation strategy (REMS). In the case of this drug, patients must comply with ongoing echocardiogram monitoring requirements. […] The prescribing physician evaluates the echocardiogram an decides the patient should be discontinued. The physician passes this information along to the REMS program by logging the data into a secure server. Subsequently the server alerts the patient and the prescribing pharmacy that the patient is no longer eligible to refill their linomide tablet prescription.

PBMCs = experiment: EROD activity of PBMCs stimulated with AhR agonist; format: cell-based, human; conditions: patient PBMCs, 24 hours, compared to healthy normal PBMCs
Description: Prior to starting therapy with a topical AhR agonist for the treatment of pustular psoriasis, a blood sample is collected. PBMCs are processed and sent out fresh for stimulation with and without the AhR agonist FICZ. After 24 hours, EROD activity is measured. […] The ratio of stimulated to unstimulated EROD activity may be indicative of baseline AhR activity and responsiveness to AhR therapy. […] Based on the data, the patient's dermatologist prescribes the topical AhR agonist for the treatment of pustular psoriasis.

[4] = system: plaque psoriasis patients; conditions: phase 3, plaque psoriasis patients; cited from earlier work
[5] = Headaches with delayed release indirubin, omeprazole lead in dose; conditions: 20 mg delayed-release capsule before delayed release indirubin, first week
hamsters = conditions: cited from earlier work
guinea pigs = conditions: cited from earlier work
mice = conditions: chronic dosing, only starting after 15 days of exposure; cited from earlier work
[6] = AhR agonist metabolism in blood microsomes, AhR-luciferase reporter readout; format: in vitro ADME, human; conditions: 10 nM, 24 hours
Description: Prior to beginning therapy with oral meisoindigo for the treatment of rheumatoid arthritis, a physician orders a diagnostic to assess ability of the subject to adequately metabolize meisoindigo. Blood microsomes are extracted from the subject and incubated in medium containing 10 nM meisoindigo for 24 hours. The microsomes are removed via ultra-centrifugation and the remaining medium is added to a reporter cell line (such as product IB06001 sold by Indigo Biosciences) that expresses luciferase behind the promoter for human CYP1A1 and which can detect AhR agonist activity. […] Based on the results of this diagnostic, the physician believes the patient has a defect making them a poor metabolizer of meisoindigo and recommends against the use of meisoindigo due to the possibility of development of adverse events.

ALT and AST = experiment: Liver enzymes after indigo modified release tablet, with or without lead in dose; format: in vivo, human
Description: As such, a product label identified a clinical regiment whereby a lead in dose of 5 mg indigo is administered once daily for 2 consecutive days prior to beginning the 50 mg therapeutic dose.

[7] = system: relapsing-remitting multiple sclerosis patients; conditions: low dose (0.6 mg/day); cited from earlier work
[8] = 50 mg immediate release tablet once daily, after two weeks
[9] = two weeks after reduction to 10 mg every other day

SMILES: Cc1ccccc1N=Nc1ccc(NC(=O)c2ccnn2C)c(C)c1 [CH223191]
shortness of breath after combination therapy (AhR): no longer has shortness of breath

plasma indirubin level ([1]; week 1, oral suspension 10 mg twice daily): 5 ng/mL | plasma indirubin level ([1]; week 2, oral suspension 10 mg twice daily): 25 ng/mL | plasma indirubin level ([1]; week 3, 2.5 mg once per day): 2 ng/mL | plasma indirubin level ([1]; week 4, 2.5 mg once per day): 3 ng/mL | plasma indirubin level ([1]; week 5, 2.5 mg once per day): 2 ng/mL | plasma indirubin level ([1]; week 6, 2.5 mg once per day): 3 ng/mL | increase of CYP1A2 mRNA in PBMCs (CYP1A2; [8]): 3 × | increase of CYP1A2 mRNA in PBMCs compared to baseline (CYP1A2; [9]): 6 × | increase of CYP1A1 mRNA in PBMCs (CYP1A1; [8]): 12 × | increase of CYP1A1 mRNA in PBMCs compared to baseline (CYP1A1; [9]): 15 ×
SMILES: O=C1Nc2ccccc2/C1=C1/Nc2ccccc2C1=O [indirubin]

echocardiogram findings [3]: signs of valvar heart disease
SMILES: CN(C(=O)c1c(O)c2ccccc2n(C)c1=O)c1ccccc1 [linomide, linomide (roquinimex)]
toxicity leading to termination of development [2]: cardiovascular toxicity, specifically pleuritis, pericarditis, and chest pain

SMILES: O=Cc1c2c(cc3c1=Nc1ccccc1-3)=Nc1ccccc1-2 [FICZ, 6-formylindolo[3,2−b]carbazole]
EROD activity after stimulation (PBMCs): high EROD activity

SMILES: CC(C)c1c(O)cc(/C=C/c2ccccc2)cc1O [tapinarof]
patients who developed inflammation of the hair follicle (folliculitis) [4]: Over 20%

effect of lead in dose on headaches [5]: reduce the development of headaches
SMILES: COc1ccc2[nH]c([S+]([O-])Cc3ncc(C)c(OC)c3C)nc2c1 (stereo not shown) [omeprazole]

SMILES: Clc1cc2c(cc1Cl)Oc1cc(Cl)c(Cl)cc1O2 [TCDD, 2,3,7,8-tetrachlorodibenzo-p-dioxin]
LD50 (hamsters): over 5000 μg/kg | LD50 (guinea pigs): 1 µg/kg | mean arterial blood pressure (mice): increased

fraction of added compound metabolized ([6]; microsomes from a healthy normal individual): 99% | metabolism in presence of microsomes ([6]; patient blood microsomes): little to no meisoindigo was metabolized
SMILES: CN1C(=O)/C(=C2/C(=O)Nc3ccccc32)c2ccccc21 [meisoindigo]

SMILES: O=C1/C(=C2\Nc3ccccc3C2=O)Nc2ccccc21 [indigo]
patients with the ALT and AST increase (ALT and AST; 50 mg twice daily modified release tablet, 2 days): 50% | increase in ALT and AST (ALT and AST; 50 mg twice daily modified release tablet, 2 days following administration): 5 × | changes in ALT or AST levels (ALT and AST; lead in dose 5 mg once daily for 2 days before 50 mg therapeutic dose, 2 days following therapeutic dosing): did not produce any notable changes

SMILES: CCN(C(=O)c1c(O)c2c(Cl)cccc2n(C)c1=O)c1ccccc1 [laquinimod]
trial's primary endpoint [7]: failed to meet the trial's primary endpoint
